Measurements published in US20260062426A1, “CYCLIN DEPENDENT KINASE DEGRADERS AND METHODS OF USE THEREOF” (Differentiated Therapeutics Inc, priority 2023, published 2026).

How the values were obtained:
Type in all cases: cell-based
CCNE1 = biological target: T1, CCNE1 (Homo sapiens, UniProt P24864+P24941); experiment: CCNE1 HIBIT PQ (protein quantification), degradation; conditions: for CCNE1 HIBIT PQ Max (%): Max = Maximum; for DC50: PQ = Protein Quantification
T1 construct: host or cells: HEK293
Summary of the method: (§1)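 HEK293 cells carrying HiBiT-tagged CCNE1 were grown in EMEM with 10% FBS and seeded in 384-well plates at 1.6×10⁵ cells/well in 50 uL, then incubated overnight at 37° C and 5% CO₂. Compound treatment lasted 6 hours, and CCNE1 protein was then measured with a HiBiT assay. High control was 0.1% DMSO-treated cells and low control was culture medium only. Maximal degradation and DC50 were derived from these readings.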

CDK2 = biological target: T2, CDK2 (Homo sapiens, UniProt P24941); experiment: CDK2 HIBIT PQ (protein quantification), degradation; conditions: for CDK2 HIBIT PQ Max (%): Max = Maximum; for DC50: PQ = Protein Quantification
T2 construct: host or cells: HEK293
Summary of the method: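 HEK293 cells bearing HiBiT-tagged CDK2 were cultured in DMEM containing 10% FBS, plated in 384-well plates at 1.6×10^5 cells/well in 50 uL, and kept overnight at 37° C and 5% CO2. Following 6 hours of compound exposure, each well received 20 μL of HiBiT reagent (Nano-Glo HiBiT lytic buffer, lytic substrate, LgBiT protein), and plates were shaken for 20 minutes at room temperature and then read on an EnVision, with 0.1% DMSO as the high control and medium only as the low control. DC50 and maximal degradation were calculated from these readings.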

CDK9 = biological target: T3, CDK9 (Homo sapiens, UniProt P50750); experiment: CDK9 HIBIT PQ (protein quantification), degradation; conditions: for Dmax / CDK9 HIBIT PQ Max (%): Max = Maximum; for DC50: PQ = Protein Quantification
T3 construct: host or cells: HEK293
Summary of the method: as §1, with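 “CDK9” for “CCNE1”, “DMEM” for “EMEM”, “1.6×10^5” for “1.6×10⁵”, “CO2. After compound treatment, CDK9” for “CO₂. Compound treatment lasted 6 hours, and CCNE1”, “was” for “was then”, “degradation, Dmax” for “degradation”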

T3 sequence (P50750 whole entry): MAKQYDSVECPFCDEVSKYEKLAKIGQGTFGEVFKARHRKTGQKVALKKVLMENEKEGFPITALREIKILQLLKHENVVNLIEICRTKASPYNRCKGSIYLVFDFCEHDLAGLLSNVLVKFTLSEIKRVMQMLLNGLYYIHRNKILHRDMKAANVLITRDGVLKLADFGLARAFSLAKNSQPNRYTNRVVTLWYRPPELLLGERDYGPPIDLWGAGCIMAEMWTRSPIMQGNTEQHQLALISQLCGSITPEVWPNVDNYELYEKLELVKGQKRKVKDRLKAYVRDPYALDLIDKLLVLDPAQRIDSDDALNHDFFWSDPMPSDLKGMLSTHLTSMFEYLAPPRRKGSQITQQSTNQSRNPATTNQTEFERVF

SMILES | CCNE1 HIBIT PQ Max (%) (CCNE1) | DC50 (CCNE1) | CDK2 HIBIT PQ Max (%) (CDK2) | DC50 (CDK2) | Dmax (CDK9) | DC50 (CDK9) | CDK9 HIBIT PQ Max (%) (CDK9)
CC(C)Oc1c(-c2cn[nH]c2)ncn2nc(N[C@H]3CCN(S(=O)(=O)c4cccc(CN5CCN(c6ccc7c(N8CCC(=O)NC8=O)nn(C)c7c6)CC5)c4)C[C@H]3C)nc12 [Compound 40] | 89% | 8.91 nM | 96% | 3.6 nM | 103% | 16.7 nM | 
CC(C)Oc1c(-c2cn[nH]c2)ncn2nc(Nc3ccc(S(=O)(=O)c4cccc(CC5CC(c6ccc7c(N8CCC(=O)NC8=O)nn(C)c7c6)C5)c4)cc3F)nc12 (stereo not drawn) [Compound 33, 1-(6-(3-(3-((3-fluoro-4-((8-isopropoxy-7-(1H-pyrazol-4-yl)-[1,2,4]triazolo[1,5-c]pyrimidin-2-yl)amino)phenyl)sulfonyl)benzyl)cyclobutyl)-1-methyl-1H-indazol-3-yl)dihydropyrimidine-2,4(1H,3H)-dione] | 47% |  | 91% | 19 nM | 9% |  | 
CC(C)Oc1c(-c2cn[nH]c2)ncn2nc(Nc3ccc(S(=O)(=O)N(C)CCCN4CCC(c5ccc6c(c5)n(C)c(=O)n6C5CCC(=O)NC5=O)CC4)c(F)c3F)nc12 (racemic) [Compound 56] | 82% | 0.23 nM | 93% |  | 90% | 0.48 nM | 
CC(C)Oc1c(-c2cn[nH]c2)ncn2nc(Nc3ccc(S(=O)(=O)N4CC5(CCCN(CC6CCN(c7cccc8c7n(C)c(=O)n8C7CCC(=O)NC7=O)CC6)C5)C4)cc3F)nc12 (racemic) [Compound 76] | 40% |  | 87% | 5.8 nM | 46% |  | 
CC(C)Oc1c(-c2cn[nH]c2)ncn2nc(NC3CCN(S(=O)(=O)c4cccc(CN5CCN(c6cc7c(cc6F)C(=O)N(C6CCC(=O)NC6=O)C7)CC5)c4)CC3)nc12 (racemic) [Compound 3] | 64% | 8.88 nM | 66% | 3.12 nM | 102% | 19.4 nM | 
CC(C)Oc1c(-c2cn[nH]c2)ncn2nc(Nc3ccc(S(=O)(=O)N(C)CCCN4C5CCC4CN(c4ccc6c(c4)n(C)c(=O)n6C4CCC(=O)NC4=O)C5)cc3F)nc12 (stereo not drawn) [Compound 68] | 67% | 1.05 nM | 90% | 0.1 nM | 73% | 2.76 nM | 
CC(C)Oc1c(-c2cn[nH]c2)ncn2nc(Nc3ccc(S(=O)(=O)c4cccc(C(C)N5CCC(c6ccc7c(N8CCC(=O)NC8=O)nn(C)c7c6)CC5)c4)cc3F)nc12 (single isomer, unassigned) [Compound 100] | 80% | 14.3 nM | 90% | 2.9 nM | 86% | 12.4 nM | 
CC(C)Oc1c(-c2cn[nH]c2)ncn2nc(N[C@H]3CCN(S(=O)(=O)c4cccc(CN5CCN(c6ccc7c(N8CCC(=O)NC8=O)nn(C)c7c6)CC5(C)C)c4)C[C@H]3C)nc12 [Compound 52] | 93% | 13.8 nM | 98% | 2.8 nM | 93% | 38.7 nM | 
CC(C)Oc1c(-c2cn[nH]c2)ncn2nc(Nc3ccc(S(=O)(=O)c4cccc(CC5CC(c6ccc7c(c6)CN(C6CCC(=O)NC6=O)C7=O)C5)c4)cc3F)nc12 (stereo not drawn) [Compound 77, 3-(5-(3-(3-((3-fluoro-4-((8-isopropoxy-7-(1H-pyrazol-4-yl)-[1,2,4]triazolo[1,5-c]pyrimidin-2-yl)amino)phenyl)sulfonyl)benzyl)cyclobutyl)-1-oxoisoindolin-2-yl)piperidine-2,6-dione] | 82% | 34.4 nM | 95% | 12.4 nM | 37% |  | 
CC(C)Oc1c(-c2cn[nH]c2)ncn2nc(Nc3ccc(S(=O)(=O)c4cccc(C[C@H]5C[C@H](c6ccc7c(c6)CN(C6CCC(=O)NC6=O)C7=O)C5)c4)cc3F)nc12 (stereo partly drawn) [Compound 30] | 79% | 29.5 nM | 96% | 7.2 nM | 54% | 147 nM | 
CC(C)Oc1c(-c2cn[nH]c2)ncn2nc(Nc3ccc(S(=O)(=O)c4cccc(CN5CC6(C5)CN(c5ccc7c(c5)CN(C5CCC(=O)NC5=O)C7=O)C6)c4)cc3F)nc12 (racemic) [Compound 10] | 60% | 10.6 nM | 86% | 3.76 nM | 54% | 25.5 nM | 
CC(C)Oc1c(-c2cn[nH]c2)ncn2nc(N[C@H]3CCN(S(=O)(=O)c4cccc(CN5CCN(c6ccc7c(N8CCC(=O)NC8=O)nn(C)c7c6)CC5C)c4)C[C@H]3C)nc12 (stereo partly drawn) [Compound 51] | 92% | 9.29 nM | 98% | 2.4 nM | 100% | 20.2 nM | 

More lines, in order of falling DC50 (CDK2), values ahead:

CCNE1 HIBIT PQ Max (%) (CCNE1) | DC50 (CCNE1) | CDK2 HIBIT PQ Max (%) (CDK2) | DC50 (CDK2) | Dmax (CDK9) | DC50 (CDK9) | CDK9 HIBIT PQ Max (%) (CDK9) | SMILES
65% | 14.4 nM | 90% | 2.25 nM | 50% |  |  | CC(C)Oc1c(-c2cn[nH]c2)ncn2nc(Nc3ccc(S(=O)(=O)c4cccc(CN5CCN(c6cc7c(cc6F)C(=O)N(C6CCC(=O)NC6=O)C7)CC5)c4)cc3F)nc12 (racemic) [Compound 11]
26% |  | 81% | 1.7 nM | 9% |  |  | CC(C)Oc1c(-c2cn[nH]c2)ncn2nc(Nc3ccc(S(=O)(=O)c4cccc(CC5CC(c6ccc7c(c6)n(C)c(=O)n7[C@H]6CCC(=O)NC6=O)C5)c4)cc3F)nc12 (mixture of isomers) [Compound 31, (3S)-3-[5-(3-{[3-(3-fluoro-4-{[8-isopropoxy-7-(1H-pyrazol-4-yl)-[1,2,4]triazolo[1,5-c]pyrimidin-2-yl]amino}benzenesulfonyl)phenyl]methyl}cyclobutyl)-3-methyl-2-oxo-1,3-benzodiazol-1-yl]piperidine-2,6-dione]
72% | 6.38 nM | 89% | 1.44 nM | 97% | 11.7 nM |  | CC(C)Oc1c(-c2cn[nH]c2)ncn2nc(Nc3ccc(S(=O)(=O)c4cccc(N5CCN(CC6CCN(c7ccc8c(c7)CN(C7CCC(=O)NC7=O)C8=O)CC6)CC5)c4)cc3F)nc12 (racemic) [Compound 9]
38% |  | 56% | 1.3 nM | 20% |  |  | CC(C)Oc1c(-c2cn[nH]c2)ncn2nc(Nc3ccc(S(=O)(=O)N4CCCC(CN5CC(c6ccc7c(N8CCC(=O)NC8=O)nn(C)c7c6)C5)C4)cc3F)nc12 (racemic) [Compound 86]
42% |  | 87% | 1.1 nM | 61% | 10.6 nM |  | CC(C)Oc1c(-c2cn[nH]c2)ncn2nc(Nc3ccc(S(=O)(=O)c4cccc(OC5CN(C6CCN(c7ccc8c(c7)CN(C7CCC(=O)NC7=O)C8=O)CC6)C5)c4)cc3F)nc12 (racemic) [Compound 23]
71% | 3.57 nM | 91% | 0.7 nM | 88% | 7.04 nM |  | CC(C)Oc1c(-c2cn[nH]c2)ncn2nc(Nc3ccc(S(=O)(=O)N4CC5C4CCN5CC4CCN(c5cccc6c5n(C)c(=O)n6C5CCC(=O)NC5=O)CC4)cc3F)nc12 (stereo not drawn) [Compound 74]
76% | 1.34 nM | 90% | 0.5 nM |  | 5.65 nM | 75% | CC(C)Oc1c(-c2cn[nH]c2)ncn2nc(Nc3ccc(S(=O)(=O)N4CCC[C@H](CN5CC[C@@H](c6ccc7c(N8CCC(=O)NC8=O)nn(C)c7c6)CC5(C)C)C4)cc3F)nc12 (single isomer, unassigned) [Compound 102]
67% | 1.02 nM | 83% | 0.5 nM |  | 7.24 nM | 71% | CC(C)Oc1c(-c2cn[nH]c2)ncn2nc(Nc3ccc(S(=O)(=O)N4CCCC(CN5CCC(c6ccc7c(N8CCC(=O)NC8=O)nn(C)c7c6)CC5)C4)cc3F)nc12 (single isomer, unassigned) [Compound 95]
44% |  | 85% | 0.42 nM | 53% | 6.6 nM |  | CC(C)Oc1c(-c2cn[nH]c2)ncn2nc(Nc3ccc(S(=O)(=O)c4cccc(CN5CCC(c6cccc7c6n(C)c(=O)n7C6CCC(=O)NC6=O)CC5)c4)cc3F)nc12 (racemic) [Compound 13]
21% |  | 81% | 0.2 nM | 41% |  |  | CC(C)Oc1c(-c2cn[nH]c2)ncn2nc(Nc3ccc(S(=O)(=O)c4cccc(CN5CCC(c6ccc7c(c6)n(C)c(=O)n7C6CCC(=O)NC6=O)CC5)c4)cc3F)nc12 (racemic) [Compound 25]
86% | 0.39 nM | 94% | 0.1 nM | 86% | 1.51 nM |  | CC(C)Oc1c(-c2cn[nH]c2)ncn2nc(Nc3c(F)cc(S(=O)(=O)N(C)CCCN4CCC(c5ccc6c(c5)n(C)c(=O)n6C5CCC(=O)NC5=O)CC4)cc3F)nc12 (racemic) [Compound 58]
